For series [1], the system named is PC12-ND6 cells. Briefly: mtDNA replication (PicoGreen staining, quantitative PCR). The settings on record: confirmed by quantitative PCR. The format is cell-based. An excerpt: FIG. 11A-11D are images from microscopy and graphs showing NaBt promotes mtDNA replication via the NRF-1/Tfam axis. (A) Confocal analysis of mtDNA foci; scale bar=5 (B) Quantitative analysis of mtDNA copy number by PCR; *p<0.001. (C, D) Quantitative immunoblot analysis of NRF-1 and Tfam; *p<0.001.
NaBt enhances mtDNA replication via the PGC1α-mediated NRF-1/Tfam axis. It was investigated whether NaBt enhanced mtDNA replication using the PicoGreen® dye to label mtDNA. PC12-ND6 cells were transfected with the mito-dsRed vector prior to NaBt treatment followed by PicoGreen® staining. […] To corroborate enhanced mitochondrial biogenesis, two key target genes of PGC1α were examined, the NRF-1 transcription factor and its direct target gene Tfam, both essential for mitochondrial biogenesis. […] The findings confirm the NaBt-mediated modulation of mitochondrial biogenesis and mtDNA replication in neuronal cells.

Series [2] deals with PC12-ND6 cells. In words: Neurite outgrowth with sub-optimal NGF (10 ng/ml). The format is cell-based. How it is done:
FIG. 13A-13E are images from microscopy and graphs showing that the timing of NaBt treatment is critical for enhancing neuronal differentiation of PC12-ND6 cells upon sub-optimal neurotrophic cues. (A) Confocal micrographs of PC12-ND6 cells treated with dbcAMP alone or with NaBt (5 mM) in a simultaneous or sequential manner. Scale bar represents 5 μm. (B) Graph of neurite length. Mean±SEM (n=50 for each condition; compared to control (no NaBt) *p=0.0001 and **p=0.0009). (C) Confocal micrographs of PC12-ND6 cells treated with sub-optimal NGF concentration (10 ng/ml) alone or first NaBt (5 mM) in a simultaneous or sequential manner. Scale bar represents 10 μm. (D) Graph of average total neurite length. Mean±SEM (n=50 for each condition; compared to control *p=0.0001). (E) Graph of the frequency of total neurite length below and above 90 μm.
NaBt-mediated modulation of the neuronal potential of PC12-ND6 cells in the context of sub-optimal NGF concentration (10 ng/ml) was further investigated. Transfected PC12-ND6 cells were first treated with NaBt (5 mM) for three days prior to NGF exposure (10 ng/ml). A time course analysis of neurite outgrowth was conducted during the first two days of NGF exposure by live-cell confocal microscopy. […] Such trend of neurite extension was maintained at day 2 of NGF exposure with NaBt-pre-treated or co-treated PC12-ND6 cells. Whether NaBt added concomitantly with NGF (10 ng/ml) could mediate increased neuritogenesis was also assessed.

Series [3] relates to mouse models of neurodegenerative diseases and ischemia/stroke. The settings on record: in vivo; cited from earlier work.
For series [4], the system named is PC12-ND6 cells. In words: NGF (100 ng/ml)-mediated neurite outgrowth after chloramphenicol. The format is cell-based. An excerpt:
FIG. 15A-15C are images from microscopy and a graph showing that Pre-treatment of PC12-ND6 cells negates the inhibitory effect of chloramphenicol on NGF-mediated neuronal differentiation. (A) Confocal micrographs of untreated and Cm-treated PC12-ND6 cells transfected with the vector mito-GFP and exposed to NGF. Scale bar represents 20 μm. (B) Confocal micrographs of NaBt pre-treated PC12-ND6 cells transfected with the vector mito-GFP and exposed to chloramphenicol prior to NGF treatment. Scale bar represents 20 μm. (C) Graph of average total neurite length. Mean±SEM (n=50 cells; compared to untreated PC12-ND6 cells *p=0.0001; compared to non-NaBt-treated PC12-ND6 cells with corresponding Cm concentration **p=0.0001).
Based on the results that NaBt endows PC12-ND6 cells with increased mitochondrial mass through biogenesis, resulting in accelerated neuronal differentiation, it was examined whether exposure to NaBt for three days could confer protection to chloramphenicol-mediated inhibition of neuronal differentiation upon NGF signaling.

Series [5] relates to neuronal cells. In words: Electron microscopy of mitochondria. Conditions: NaBt-treated vs control cells. It counts as cell-based. How it is done:
(§1) FIG. 9A-9C are graphs and images from microscopy showing that NaBt enhances mitochondrial bioenergetics. (A) Flow cytometric analysis of Δψm; *p<0.001. (B) ATP levels in live cells using a Mg^2+-based assay; *p<0.001. (C) Electron microscopy of mitochondria in control and NaBt-treated cells; scale bar=200 nm.
(§2) NaBt increases mitochondrial membrane potential (Δψm) and ATP levels. The MTR-based data raised the question: could NaBt also enhance mitochondrial bioenergetics? Δψm was assessed by live cell confocal microscopy and flow cytometry using the TMRM dye, which accumulates in the mitochondrial matrix in a Δψm-dependent fashion. A 1.5-fold increase in Δψm in NaBt-treated cells was observed (FIG. 9A). To test whether enhanced Δψm led to increased ATP output, ATP levels were monitored using the live cell Mg^2+-based ATP assay, which is compatible with the TMRM dye, allowing simultaneous recordings. A 1.6-fold increase in ATP levels in NaBt-treated cells was observed (FIG. 9B), in line with the MTR- and TMRM-based findings and the elongated mitochondrial morphology.

The test system of series [6] is neuronal cells. Briefly: Mitochondrial membrane potential (TMRM dye, confocal microscopy and flow cytometry). The format is cell-based. Conditions: NaBt-treated cells. How it is done: as §1, §2
Background: In flow cytometry, cells or beads pass a laser one at a time.

The subject of the next series is MELAS fibroblasts. Briefly: Affymetrix genome-wide microarray analysis. The format is cell-based, human. An excerpt:
An embodiment of the novel pharmacological approach described herein uses butyrates to promote nuclear and mitochondrial metabolic reprogramming by boosting mitochondrial biogenesis and maximizing residual ATP output. […] Thus, the data validate a pharmaco-epigenomic approach and establish proof-of-principle. It was hypothesized that butyrates can augment the functional mitochondrial mass in skin fibroblasts from 20 MELAS patients. Fibroblasts from this number of patients, each with different nuclear backgrounds and heteroplasmic loads, will ensure the findings extend beyond a case study into a statistically sound and broadly applicable report. It will be tested whether butyrates: (Aim 1) induce favorable mitochondrial biogenesis, thereby shifting heteroplasmy toward healthy mitochondria; and (Aim 2) maximize ATP output via optimization of OXPHOS activity and a metabolic shift toward fatty acid beta oxidation. It is anticipated to identify the most promising butyrate candidate for alleviating the symptoms of the MELAS disease. The proposed study will set the stage for future clinical studies with the Children's National Medical Center and the North American Mitochondrial Disease Consortium, in concordance with the PAR-13-023 issued by the NINDS Office of Translational Research for R21 exploratory projects.

Turning to `CCCC(=O)[O-].[Na+]` [NaBt, sodium butyrate], the mtDNA foci result in the series on PC12-ND6 cells [1] is on record as “increased number of mtDNA foci”. The “neurite outgrowth, NaBt and NGF administered simultaneously” value with PC12-ND6 cells [2] (NGF 10 ng/ml) is on record as “No synergistic effect”. Further, the “average total neurite length” value in the series with PC12-ND6 cells [2] (NaBt 5 mM three days pre-treatment, 24 hours NGF 10 ng/ml, control 60 μm) is reported as 168 μm. In the series on PC12-ND6 cells [2] (NaBt pre-treated, NGF 10 ng/ml, control 16%), the “percent of neurites longer than 90 μm” value is on record as 79%. In series [3], the “effects in mouse models” value is “stimulates neurogenesis, enhances synaptic plasticity and memory, while preventing neuronal death”. Further, the “mitochondrial density in processes” value in the series on PC12-ND6 cells [4] (NaBt pre-treated, 60 μM chloramphenicol) is recorded as “retained a high mitochondrial density”. Moreover, the “total neurite length with NaBt pre-treatment” value in the series with PC12-ND6 cells [4] (NaBt three days, highest concentration of chloramphenicol, NGF) was “remained unaffected”. Moreover, the mitochondrial micro-architecture result with neuronal cells [5] is “increased numbers of elongated cristae”. Further, the “increase in Δψm” value in the series on neuronal cells [6] is 1.5 fold. For the same molecule, in the series on MELAS fibroblasts (30 genes, p<0.05), the “increased expression of OXPHOS genes” value is no less than 1.5 fold. Besides, in the series on MELAS fibroblasts (NaBt), the “nuclear genes significantly regulated” value amounted to 5% and the off-target effects result is “limited off-target effects”. In the series with MELAS fibroblasts (NaBt-treated), the “expression of nuclear genes involved in mitochondrial morphology and fusion-fission events” value is recorded as “increased expression levels”; the “genes known to promote FAO” value is on record as “ten upregulated genes”. Further, the “number of OXPHOS genes with increased expression” value with MELAS fibroblasts (subunits of complexes II, III, IV, V, p<0.05) came out at 30.

The values above are taken from US10272056B2, “Treatment for mitochondrial diseases” (The George Washington University a Congressionally …, priority 2015, dated 2019).
